pIC50: −log10 of the molar value.
How the values were obtained:
[1] = biological target: T1, hormone-sensitive lipase (HSL) (Rattus norvegicus, UniProt P15304); assay: HSL enzyme assay (NAG assay) with partially purified HSL; assay type: biochemical; conditions: inhibition of HSL enzymatic activity; partially purified HSL from rat fat cells; NAG substrate; 30° C., 60 min
T1 construct: Isolated rat fat cells are obtained from epididymal adipose tissue from untreated male rats; from tissue; host or cells: rat (Wistar) epididymal adipose tissue, isolated fat cells
T1 sequence (P15304 1-768 isoform P15304-2): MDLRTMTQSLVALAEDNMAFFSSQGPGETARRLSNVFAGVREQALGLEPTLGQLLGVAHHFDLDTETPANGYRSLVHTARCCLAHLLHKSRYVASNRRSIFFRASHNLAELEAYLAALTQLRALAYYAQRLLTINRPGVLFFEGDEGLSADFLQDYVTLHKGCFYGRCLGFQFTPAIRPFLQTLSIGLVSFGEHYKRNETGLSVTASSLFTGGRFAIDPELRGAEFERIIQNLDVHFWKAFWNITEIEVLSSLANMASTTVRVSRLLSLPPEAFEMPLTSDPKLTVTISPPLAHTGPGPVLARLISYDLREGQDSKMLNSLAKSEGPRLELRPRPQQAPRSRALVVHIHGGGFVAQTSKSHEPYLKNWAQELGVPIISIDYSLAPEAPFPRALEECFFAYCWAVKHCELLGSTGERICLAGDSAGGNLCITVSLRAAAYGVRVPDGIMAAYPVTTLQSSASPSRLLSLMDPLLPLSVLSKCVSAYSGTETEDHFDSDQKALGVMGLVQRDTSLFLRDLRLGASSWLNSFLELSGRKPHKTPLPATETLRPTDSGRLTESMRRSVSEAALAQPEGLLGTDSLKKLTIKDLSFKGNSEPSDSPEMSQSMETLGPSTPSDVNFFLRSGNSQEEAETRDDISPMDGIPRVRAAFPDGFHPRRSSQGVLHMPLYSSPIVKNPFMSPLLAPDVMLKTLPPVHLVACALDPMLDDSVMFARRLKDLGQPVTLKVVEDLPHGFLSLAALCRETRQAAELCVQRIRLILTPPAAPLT
Method: The effect of the compounds of the invention of the formula I is tested in the following enzyme assay system: […]
Preparation of the Partially Purified HSL:
Isolated rat fat cells are obtained from epididymal adipose tissue from untreated male rats (Wistar, 220-250 g) by collagenase treatment in accordance with published methods (e.g. S, Nilsson et al., Anal. Biochem. 158, 1986, 399-407; G. Fredrikson et al., J. Biol. Chem. 256, 1981, 6311-6320; H. Tornquist et al., J. Biol. Chem. 251, 1976, 813-819). The fat cells from 10 rats are washed three times by flotation with 50 ml of homogenization buffer ([…] Tris/HCl, pH 7.4, 0.25 M sucrose, 1 mM EDTA, 1 mM DTT, 10 μg/ml leupeptin, 10 μg/ml antipain, 20 μg/ml pepstatin) each time and finally taken up in 10 ml of homogenization buffer. The fat cells are homogenized in a Teflon-in-glass homogenizer (Braun-Melsungen) by 10 strokes at 1500 rpm and 15° C. The homogenate is centrifuged (Sorvall SM24 tubes, 5000 rpm, 10 min, 4° C.). The subnatant between the layer of fat at the top and the pellet is removed and the centrifugation is repeated. The subnatant resulting therefrom is centrifuged again (Sorvall SM24 tubes, 20 000 rpm, 45 min, 4° C.). […] After incubation at 4° C. for 60 min (shaking at intervals of 15 min), the mixture is centrifuged (Sorvall SM24 tubes, 3000 rpm, 10 min, 4° C.). The supernatant is adjusted to pH 5.2 by adding glacial acetic acid and is incubated at 4° C. for 30 min. The precipitates are collected by centrifugation (Sorvall SS34, 12 000 rpm, 10 min, 4° C.) and suspended in 2.5 ml of 20 mM Tris/HCl, pH 7.0, 1 mM EDTA, 65 mM NaCl, 13% sucrose, 1 mM DTT, 10 μg/ml leupeptin/pepstatin/antipain. The suspension is dialyzed against 25 mM Tris/HCl, pH 7.4, 50% glycerol, 1 mM DTT, 10 μg/ml leupeptin, pepstatin, antipain at 4° C. overnight and then loaded onto a hydroxiapatite column (0.1 g per 1 ml of suspension, equilibrated with 10 mM potassium phosphate, pH 7.0, 30% glycerol, 1 mM DTT). The column is washed with four volumes of equilibration buffer at a flow rate of 20 to 30 ml/h. The HSL is eluted with one volume of equilibration buffer containing 0.5 M potassium phosphate and then dialyzed (see above) and concentrated 5- to 10-fold by ultrafiltration (Amicon Diaflo PM 10 Filter) at 4° C. The partially purified HSL can be stored at −70° C. for 4 to 6 weeks.
Preparation of NAG (NBD Monoacyl Glyceride) Substrate:
6 mg of phosphatidylcholine and 6 mg of phosphatidylinositol are each dissolved in 1 ml of chloroform. 10 mg of NAG are dissolved in 1 ml of chloroform. Two parts of phosphatidylinositol solution (e.g. 83.5 μl) and one part of phosphatidylcholine solution (e.g. 41.5 μl) and 100 μl of NAG solution are pipetted together into plastic scintillation vessels (final concentration in the assay: 0.0375 mg of phospholipid/ml; 0.05 mg/NAG/ml). The chloroform (225 μl total volume) is completely removed by passing a stream of N2 over it. The dried substrate can be stored at 4° C. for up to 3 days. To prepare the phospholipid vesicles/micelles with intercalated NAG (on the day of the assay), the dried substrate is taken up in 20 ml of assay buffer (25 mM Tris/HCl, pH 7.4; 150 mM NaCl) and two ultrasound treatments carried out with an ultrasonic probe (Branson Sonifier Type II, standard microtip): 1st treatment setting 2, 2×1 min, in between 1 min on ice each time; 2nd treatment setting 4, 2×1 min, in between 1 min on ice each time. During this procedure, the color of the substrate solution changes from yellow (extinction maximum 481 nm) to red (extinction maximum 550 nm) owing to intercalation of NAG between the phospholipid molecules in the vesicles/micelles. Before use as substrate (within the next 2 h), the solution is incubated on ice for 15 min.
The assay is carried out in 1.5 ml Eppendorf vessels or 96-well plates at 30° C. for 60 min. […]

| SMILES | melting point | pIC50 [1] |
| --- | --- | --- |
| CC1CC(NS(=O)(=O)c2cc(S(=O)(=O)N=CN(C)C)c(C(F)(F)F)cc2N)CC(C)(C)C1 (stereo not shown) [Example 26, 2-Amino-4-trifluoromethyl-5-dimethylaminomethylenesulfamoyl-N-(3,3,5-trimethyl-cyclohexyl)benzenesulfonamide] | > 165 °C (dec.) | – |
| CC1CC(NC(=O)c2ccc(Cl)c(S(=O)(=O)N=CN(C)C)c2)CC(C)(C)C1 (stereo not shown) [Example 10, 4-Chloro-3-(dimethylaminomethylenesulfamoyl)-N-(3,3,5-trimethylcyclohexyl)benzamide] | 180 °C | – |
| Cc1cc(C)cc(NC(=O)c2ccc(Cl)c(S(=O)(=O)N=CN(C)C)c2)c1 [Example 12, 4-Chloro-3-(dimethylaminomethylenesulfamoyl)-N-(3,5-dimethylphenyl)benzamide] | 216 °C | – |
| Cc1cc(C)cc(OCc2ccc(Cl)c(S(=O)(=O)N=CN(C)C)c2)c1 [Example 19, 6-Chloro-N-dimethylaminomethylene-3-[(3,5-dimethylphenoxy)methyl]benzenesulfonamide] | 137 °C | 6.40 |
| CC1CC(NS(=O)(=O)c2ccc(Cl)c(S(=O)(=O)N=CN(C)C)c2)CC(C)(C)C1 (stereo not shown) [Example 23, 6-Chloro-N-dimethylaminomethylene-3-(3,3,5-trimethylcyclohexylaminosulfonyl]benzenesulfonamide] | – | 6.82 |
| CN(C)C=NS(=O)(=O)c1cc(C(=O)NC2CC(C)(C)NC(C)(C)C2)ccc1Cl [Example 11, 4-Chloro-3-(dimethylaminomethylenesulfamoyl)-N-(2,2,6,6-tetramethylpiperidin-4-yl)-benzamide] | 192 °C | – |
| C=CCN(C1CCCCC1)S(=O)(=O)c1cc(S(=O)(=O)N=CN(C)C)c(Cl)cc1N [Example 33, 2-Amino-4-chloro-5-dimethylaminomethylenesulfamoyl-N-cyclohexyl-N-allyl-benzenesulfonamide] | 90 °C | 6.70 |
| COc1ccc(S(=O)(=O)N=CN(C)C)cc1CN1CC(C)CC(C)C1 (stereo not shown) [Example 8, N-Dimethylaminomethylene-4-methoxy-3-[(3,5-dimethylpiperidino)methyl]benzenesulfonamide] | 89 °C | – |
| CC(C)CN(CC(C)C)S(=O)(=O)c1cc(S(=O)(=O)N=CN(C)C)c(Cl)cc1N [Example 29, 2-Amino-4-chloro-5-dimethylaminomethylenesulfamoyl-N-diisobutylbenzenesulfonamide] | 126 °C | 6.15 |
| CCCCCCCCNS(=O)(=O)c1cc(S(=O)(=O)N=CN(C)C)c(Cl)cc1N [Example 38, 2-Amino-4-chloro-5-dimethylaminomethylenesulfamoyl-N-octylbenzenesulfonamide] | 110 °C | – |
| CC(C)N(C1CCCCC1)S(=O)(=O)c1cc(S(=O)(=O)N=CN(C)C)c(Cl)cc1N [Example 34, 2-Amino-4-chloro-5-dimethylaminomethylenesulfamoyl-N-cyclohexyl-N-isopropyl-benzenesulfonamide] | 122 °C (dec.) | – |
| CN(C)C=NS(=O)(=O)c1cc(S(=O)(=O)N2CCCC(C)(C)C2)ccc1Cl [Example 24, 6-Chloro-N-dimethylaminomethylene-3-(3,3-dimethylpiperidinosulfonyl]-benzenesulfonamide] | 123 °C | – |
| CC1CC(N(Cc2ccc(Cl)c(S(=O)(=O)N=CN(C)C)c2)S(C)(=O)=O)CC(C)(C)C1 (stereo not shown) [Example 21, 6-Chloro-N-dimethylaminomethylene-3-[(N-(3,3,5-trimethylcyclohexyl)-N-methylsulfonylamino)methyl]benzenesulfonamide] | – | 6.30 |
| CCCCN(CCCC)S(=O)(=O)c1cc(S(=O)(=O)N=CN(C)C)c(Cl)cc1N [Example 28, 2-Amino-4-chloro-5-dimethylaminomethylenesulfamoyl-N-dibutylbenzenesulfonamide] | – | 7.52 |
| CN(C)C=NS(=O)(=O)c1cc(S(=O)(=O)NC2CCCCC2)c(N)cc1C(F)(F)F [Example 48, 2-Amino-4-trifluoromethyl-5-dimethylaminomethylenesulfamoyl-N-cyclohexyl-benzenesulfonamide] | > 185 °C (dec.) | 6.15 |
| CC1CC(NS(=O)(=O)c2cc(S(=O)(=O)N=CN(C)C)c(Cl)cc2N)CC(C)(C)C1 (stereo not shown) [Example 32] | 100 °C | 9.00 |
| CN(C)C=NS(=O)(=O)c1cc(C(=O)NCc2ccccc2Cl)ccc1Cl [Example 16, 4-Chloro-3-(dimethylaminomethylenesulfamoyl)-N-(2-chlorophenylmethyl)benzamide] | 167 °C | – |

— patent publication US7781613B2, “Substituted N-aminomethylene sulfonamides, production and use thereof as medicaments” (Sanofi-Aventis, priority 2005, dated 2010)
